Reference: the supplement of paper PMC12592484

How the values were obtained:
Assay in all cases: drug sensitivity score (DSS2, normalised partial AUC of dose-response, 72 h CellTiter-Glo viability) (DSS (dimensionless)); higher = more sensitive (stronger growth inhibition / cytotoxicity); extreme values may be limits of the assay
CAF#3 = system: CAF#3 (primary prostate cancer-associated fibroblasts of myCAF-like type)
Procedure, shortened: (§1)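 Viability of low-passage primary prostate cancer-associated fibroblasts, PF179T, WPMY-1, LNCaP and 22Rv1 cells was read by CellTiter-Glo 2.0 luminescence 72 h after seeding onto compounds pre-dispensed in 384-well plates at five doses over a 10,000-fold range. Readings were scaled between vehicle and positive-control wells. Sensitivity is reported as a drug sensitivity score from BREEZE, namely a partial area under the fitted logistic curve divided by the log of its upper asymptote, where higher means more sensitive.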

LNCAP = system: LNCAP
Procedure, shortened: as §1

CAF#7 = system: CAF#7 (primary prostate cancer-associated fibroblasts of myCAF-like type)
Procedure, shortened: as §1

WPMY-1 = system: WPMY-1
Procedure, shortened: as §1

CAF#4 = system: CAF#4 (primary prostate cancer-associated fibroblasts of iCAF-like type)
Procedure, shortened: as §1

CAF#5 = system: CAF#5 (primary prostate cancer-associated fibroblasts of myCAF-like type)
Procedure, shortened: as §1

PF179T = system: PF179T
Procedure, shortened: as §1

CAF#6 = system: CAF#6 (primary prostate cancer-associated fibroblasts of iCAF-like type)
Procedure, shortened: as §1

CAF#2 = system: CAF#2 (primary prostate cancer-associated fibroblasts of iCAF-like type)
Procedure, shortened: as §1

22Rv1 = system: 22Rv1
Procedure, shortened: as §1

CAF#1 = system: CAF#1 (primary prostate cancer-associated fibroblasts of myCAF-like type)
Procedure, shortened: as §1

| SMILES | drug sensitivity score (CAF#3) | drug sensitivity score (LNCAP) | drug sensitivity score (CAF#7) | drug sensitivity score (WPMY-1) | drug sensitivity score (CAF#4) | drug sensitivity score (CAF#5) | drug sensitivity score (PF179T) | drug sensitivity score (CAF#6) | drug sensitivity score (CAF#2) | drug sensitivity score (22Rv1) | drug sensitivity score (CAF#1) |
| --- | --- | --- | --- | --- | --- | --- | --- | --- | --- | --- | --- |
| CC(=O)[C@]1(O)Cc2c(O)c3c(c(O)c2[C@@H](O[C@H]2C[C@H](N)[C@H](O)[C@H](C)O2)C1)C(=O)c1ccccc1C3=O [Idarubicin] (tested concentration range 0.1-1000 nM) | 4.4 | 19.9 | 9.3 | 16.4 | 7.5 | 7.9 | 12.5 | 8.5 | 12.1 | 12.9 | 7.6 |
| COc1cc(C(=O)O)ccc1NC(=O)[C@@H]1N[C@@H](CC(C)(C)C)[C@](C#N)(c2ccc(Cl)cc2F)[C@H]1c1cccc(Cl)c1F [Idasanutlin] (tested concentration range 1-10000 nM) | 5.1 | 0 | 10.2 | 1.9 | 11.5 | 12.5 | 16.7 | 10.6 | 13.5 | 12.7 | 12.5 |
| CC[C@H](Nc1ncnc2[nH]cnc12)c1nc2cccc(F)c2c(=O)n1-c1ccccc1 [Idelalisib] (tested concentration range 1-10000 nM) | 4.6 | 10.2 | 3.9 | 1.3 | 5.6 | 3.6 | 5.4 | 3.2 | 4.5 | 2 | 3.4 |
| Cc1ccc(NC(=O)c2ccc(CN3CCN(C)CC3)cc2)cc1Nc1nccc(-c2cccnc2)n1 [Imatinib] (tested concentration range 1-10000 nM) | 1.7 | 2.2 | 0.7 | 0.6 | 2 | 0.6 | 0 | 1.7 | 2.6 | 1.6 | 0.3 |
| CC(C)Cn1cnc2c(N)nc3ccccc3c21 [Imiquimod] (tested concentration range 0.2-2500 nM) | 0.1 | 0 | 0 | 0 | 0 | 0 | 0 | 0 | 0 | 0 | 1.4 |
| Cn1cc(C[C@@H](N)C(=O)O)c2ccccc21 [Indoximod] (tested concentration range 0.5-5000 nM) | 0 | 0 | 0 | 0 | 0 | 0.6 | 0 | 0 | 0 | 0 | 0 |
| CCN1CCN(c2ccc(Nc3cc(N(C)C(=O)Nc4c(Cl)c(OC)cc(OC)c4Cl)ncn3)cc2)CC1 [Infigratinib] (tested concentration range 0.1-1000 nM) | 0 | 0 | 0 | 0 | 0 | 0 | 0 | 0 | 0 | 0 | 0 |
| CC(C)NC[C@@H](C(=O)N1CCN(c2ncnc3c2[C@H](C)C[C@H]3O)CC1)c1ccc(Cl)cc1 [Ipatasertib] (tested concentration range 1-10000 nM) | 1.8 | 22.6 | 0 | 2 | 0.1 | 1.1 | 0 | 1.7 | 1.2 | 5.7 | 0.6 |
| CCC(C)n1ncn(-c2ccc(N3CCN(c4ccc(OCC5COC(Cn6cncn6)(c6ccc(Cl)cc6Cl)O5)cc4)CC3)cc2)c1=O (stereo not drawn) [Itraconazole] (tested concentration range 0.5-5000 nM) | 2.7 | 5.3 | 1.2 | 4.2 | 0.2 | 0 | 1 | 1.6 | 1.2 | 2.7 | 0 |
| N#Cc1ccnc(N2C(=O)CC[C@H]2C(=O)N(c2cncc(F)c2)[C@H](C(=O)NC2CC(F)(F)C2)c2ccccc2Cl)c1 [Ivosidenib] (tested concentration range 1-10000 nM) | 0 | 0 | 0 | 0.2 | 2 | 0.3 | 0 | 0 | 1.4 | 0 | 0.7 |
| C/C(=C\c1csc(C)n1)[C@@H]1C[C@@H]2O[C@]2(C)CCC[C@H](C)[C@H](O)[C@@H](C)C(=O)C(C)(C)[C@@H](O)CC(=O)N1 [Ixabepilone] (tested concentration range 0.1-1000 nM) | 0.1 | 4.4 | 0.4 | 4.5 | 2.9 | 2.5 | 3.2 | 0 | 4.3 | 4.3 | 2.9 |
| CC(C)C[C@H](NC(=O)CNC(=O)c1cc(Cl)ccc1Cl)B(O)O [Ixazomib] (tested concentration range 0.1-1000 nM) | 7.2 | 12.9 | 7.4 | 16.5 | 5.8 | 7.3 | 4.9 | 6 | 6.3 | 10.7 | 4.6 |
| Nc1cc(COc2c(Cl)cc(C[C@H](N)C(=O)O)cc2Cl)c2oc(-c3ccccc3)nc2c1 [JPH203] (tested concentration range 0.5-5000 nM) | 0 | 0 | 0 | 0 | 0 | 1 | 0 | 0.1 | 2 | 0 | 0.1 |
| CC(C)NC(=O)COc1cccc(-c2nc(Nc3ccc4[nH]ncc4c3)c3ccccc3n2)c1 [KD025] (tested concentration range 0.5-5000 nM) | 2.2 | 4.5 | 0.5 | 2.1 | 0.1 | 1.1 | 0 | 0 | 0.1 | 1 | 0 |
| CC(C)[C@@H](CS(=O)(=O)C(C)C)N1C(=O)[C@@](C)(CC(=O)O)C[C@H](c2cccc(Cl)c2)[C@H]1c1ccc(Cl)cc1 [KRT-232] (tested concentration range 1-10000 nM) | 6.3 | 21.4 | 12.7 | 0 | 8.6 | 10.9 | 14.2 | 11.9 | 14.7 | 10 | 13.7 |
| CS(=O)(=O)CCNCc1ccc(-c2ccc3ncnc(Nc4ccc(OCc5cccc(F)c5)c(Cl)c4)c3c2)o1 [Lapatinib] (tested concentration range 0.1-1000 nM) | 0.1 | 0.3 | 0 | 0 | 0 | 0 | 0 | 0 | 0 | 0 | 0 |
| O=C(Nc1cnn2ccc(N3CCC[C@@H]3c3cc(F)ccc3F)nc12)N1CC[C@H](O)C1 [Larotrectinib] (tested concentration range 0.1-1000 nM) | 0 | 0 | 0 | 0 | 0 | 0 | 0 | 0 | 0 | 0 | 0 |
| Oc1ccc2c(c1)CC[C@H](c1ccccc1)[C@@H]2c1ccc(OCCN2CCCC2)cc1 [Lasofoxifene] (tested concentration range 0.1-1000 nM) | 0 | 0 | 0 | 0 | 0 | 1.3 | 0 | 0 | 0 | 0 | 0 |
| Nc1cccc2c1CN(C1CCC(=O)NC1=O)C2=O (stereo not drawn) [Lenalidomide] (tested concentration range 10-100000 nM) | 0 | 0 | 0 | 0 | 3 | 1.1 | 0 | 0 | 2.2 | 0 | 1.4 |
| COc1cc2nccc(Oc3ccc(NC(=O)NC4CC4)c(Cl)c3)c2cc1C(N)=O [Lenvatinib] (tested concentration range 0.2-2500 nM) | 4.1 | 1.8 | 5.8 | 0.1 | 3 | 0.3 | 0.9 | 3.8 | 4.3 | 0 | 2.1 |
| N#Cc1ccc(C(c2ccc(C#N)cc2)n2cncn2)cc1 [Letrozole] (tested concentration range 1-10000 nM) | 0 | 0 | 0 | 0 | 0 | 0 | 0 | 0 | 0 | 0 | 0 |
| O=C1CCc2c(Oc3ccc4c(c3)[C@@H]3[C@H](O4)[C@H]3c3nc4cc(C(F)(F)F)ccc4[nH]3)ccnc2N1 [Lifirafenib] (tested concentration range 1-10000 nM) | 0 | 5.9 | 0.7 | 3.7 | 2.4 | 2.2 | 1.3 | 0.5 | 4.2 | 6.3 | 3.4 |
| C[C@]1(O)C[C@@H](c2nc(-c3ccc4ccc(-c5ccccc5)nc4c3)c3c(N)nccn32)C1 [Linsitinib] (tested concentration range 1-10000 nM) | 0 | 0.6 | 0.7 | 0.5 | 0 | 3.2 | 0 | 0.2 | 2.6 | 1.3 | 1.5 |
